According to US20260041679A1, “METHOD OF TREATING HYPERTENSION WITH THE ALDOSTERONE SYNTHASE INHIBITOR BAXDROSTAT” (CINCOR PHARMA, INC., priority 2022, published 2026):

Legend:
[1] = Study 121: serum electrolytes and eGFR; format: in vivo, human
Description: Aldosterone plays a direct role in the pathogenesis of hypertension via increasing renal absorption of sodium and water while promoting excretion of potassium. There is the potential therefore for an aldosterone synthesis inhibitor to cause the electrolyte abnormalities of hyperkalemia or hyponatremia. Moreover, the decrease in SBP expected with aldosterone inhibitors will reduce blood flow through the afferent arterioles in the kidney, leading to an apparent decline in determination of eGFR. These potential perturbations in kidney physiology were closely monitored throughout the study via the measurement of serum electrolytes and eGFR.

[2] = target: T1, aldosterone synthase (Homo sapiens, UniProt P19099); assay: Single ascending dose study, pharmacodynamics: aldosterone, cortisol with ACTH challenge (Example 1); format: in vivo
T1 construct: Pharmacodynamic measurements included plasma aldosterone, cortisol, and electrolytes; endogenous in cells; host or cells: human subjects in vivo (healthy volunteers; resistant hypertension patients)
T1 sequence (P19099 25-503): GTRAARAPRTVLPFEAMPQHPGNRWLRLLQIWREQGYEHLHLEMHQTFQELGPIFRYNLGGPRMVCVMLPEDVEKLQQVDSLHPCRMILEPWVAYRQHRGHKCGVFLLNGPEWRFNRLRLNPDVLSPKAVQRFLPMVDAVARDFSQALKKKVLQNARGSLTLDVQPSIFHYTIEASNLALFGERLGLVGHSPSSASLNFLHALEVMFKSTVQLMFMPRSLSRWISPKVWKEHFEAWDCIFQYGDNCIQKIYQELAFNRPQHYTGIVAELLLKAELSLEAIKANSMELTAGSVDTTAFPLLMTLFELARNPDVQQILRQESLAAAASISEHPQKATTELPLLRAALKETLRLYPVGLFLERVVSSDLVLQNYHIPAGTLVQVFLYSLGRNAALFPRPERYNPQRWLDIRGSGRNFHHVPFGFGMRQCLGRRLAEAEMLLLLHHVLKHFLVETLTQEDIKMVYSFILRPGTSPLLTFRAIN
Protocol: Eighty-eight healthy male volunteers completed the first-in-human study of baxdrostat. In part 1 of the trial, subjects received a single oral dose of baxdrostat ranging from 1 to 360 mg in order to evaluate safety, tolerability, PK, and pharmacodynamics (PD). Part 2 evaluated the PK of a single 3 mg intravenous dose of baxdrostat.

Question: Which “AEs of renal impairment” value ([1]; 0.5 mg) does the source give for `CCC(=O)N[C@@H]1CCCc2c(-c3ccc4c(c3)CCC(=O)N4C)cncc21` [baxdrostat, (R)—N-(4-(1-methyl-2-oxo-1,2,3,4-tetrahydroquinolin-6-yl)-5,6,7,8-tetrahydroisoquinolin-8-yl) propionamide] here?
Answer: no cases

Question: What about the “change in serum potassium from baseline to end of treatment, mean (standard deviation)” value ([1]; 0.5 mg) of the same molecule?
Answer: 0.19 (0.474) mEq/L

Question: What about the “change in serum sodium from baseline to end of treatment, mean (SD)” value ([1]; 0.5 mg) of the same molecule?
Answer: −1.2 (2.73) mEq/L

Question: What about the “patients with mild hyponatremia (serum sodium <130 mEq/L)” value (“patients with mild hyponatremia” below) ([1]; 0.5 mg) of the same molecule?
Answer: 1 patients

Question: And the “AEs of renal impairment” value ([1]; 1 mg)?
Answer: 3

Question: And the “change in serum potassium from baseline to end of treatment, mean (standard deviation)” value ([1]; 1 mg)?
Answer: 0.36 (0.481) mEq/L

Question: And the “change in serum sodium from baseline to end of treatment, mean (SD)” value ([1]; 1 mg)?
Answer: −1.1 (3.03) mEq/L

Question: What about the “patients with mild hyponatremia” value ([1]; 1 mg) of the same molecule?
Answer: 7 patients

Question: And the “AEs of renal impairment” value ([1]; 2 mg)?
Answer: 1

Question: What about the “change in serum potassium from baseline to end of treatment, mean” value ([1]; 2 mg) of the same molecule?
Answer: 0.29 mEq/L

Question: And the “change in serum sodium from baseline to end of treatment, mean” value ([1]; 2 mg)?
Answer: −2.4 mEq/L

Question: And the “patients with mild hyponatremia” value ([1]; 2 mg)?
Answer: 1 patients

Question: And the “mean eGFR” value ([1]; 0.5, 1, 2 mg QD)?
Answer: mild dose-dependent decrease in mean eGFR

Question: And the “overall rate of moderate hyperkalemia (potassium>6.0 mEq/L)” value ([1]; 2 highest dose groups)?
Answer: 2.2%

Question: And the “patients with moderate hyperkalemia (potassium>6.0 mEq/L)” value ([1]; 2 highest dose groups)?
Answer: 3 patients

Question: What about the “moderate hypokalemia (potassium 3.0 to 2.5 mEq/L)” value ([1]; any baxdrostat dose groups) of the same molecule?
Answer: no cases

Question: What about the “relationship between dose and serum calcium, serum phosphorus” value ([1]; in vivo) of the same molecule?
Answer: no apparent relationship

Question: And the “cortisol levels with an adrenocorticotropin hormone challenge” value ([2]; single oral dose)?
Answer: no meaningful effect on cortisol levels

Question: What about the aldosterone levels ([2]; single oral dose 1 to 360 mg, fasted, low salt and normal salt diet) of the same molecule?
Answer: significantly reduced aldosterone levels in a dose-dependent manner
